Values of other authors, collected in US20040023897A1, “Methods for preventing or treating disease mediated by toxin-secreting bacteria” (priority 2001, published 2004).

Columns and labels:
[1] = system: V-ATPases
[2] = system: V-ATPases; remark: listed apart in the source

| Compound | concentration at which reversible inhibition of proton translocation occurs [1] | other results |
| --- | --- | --- |
| C/C=C/[C@H]1O[C@@](O)([C@@H](C)[C@H](O)[C@H](C)[C@H]2OC(=O)/C(OC)=C/C(C)=C/[C@@H](C)[C@@H](O)[C@@H](CC)[C@@H](O)[C@H](C)C/C(C)=C/C=C/[C@@H]2OC)C[C@@H](O[C@H]2C[C@@H](O)[C@H](OC(N)=O)[C@@H](C)O2)[C@@H]1C [concanamycin A] | sub-micromolar concentrations |  |
| CCN1C(=O)C=CC1=O [N-ethylmaleimide] |  | concentration at which inhibition of ATP hydrolysis occurs [2]: low micromolar concentrations |
| CO/C1=C\C(C)=C\[C@@H](C)[C@@H](O)[C@@H](C)C/C(C)=C/C=C/[C@H](OC)[C@@H]([C@@H](C)[C@@H](O)[C@H](C)[C@@]2(O)C[C@@H](O)[C@H](C)[C@@H](C(C)C)O2)OC1=O [Bafilomycin A1] | sub-micromolar concentrations |  |
| C(=NC1CCCCC1)=NC1CCCCC1 [DCCD, N,N′-dicyclohexylcarbodiimide] |  | inhibition of proton pumping ([1]; micromolar concentrations of DCCD): complete and irreversible inhibition |
